The IC50 is the concentration needed to halve the response being measured.

The assay deals with canine TRPM8 (Canis lupus familiaris, UniProt Q1A7N1). Briefly: In Vitro Canine TRPM8 Functional Assay (Ca2+ fluorescence, icilin activation). The note with it: for inhibition at 0.2 µM / % Inh @ 0.2 (μM): compound at 0.2 μM, canine TRPM8, icilin activation; for inhibition at 0.2 µM: read-out: % Inh @ 0.2; for IC50: HEK293 cells stably expressing canine TRPM8, icilin activation, eight-point dose-response, read-out: IC50. The assay is classed as cell-based. Put shortly:
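Eight-point dose-response curves, each point averaging quadruplicate wells, gave EC50 or IC50. Canine TRPM8-expressing HEK293 cells, dye-loaded (Calcium 3), were pre-exposed 5 min to compound, then challenged with icilin at roughly EC80; intracellular Ca2+ read by FLIPR or FDSS fluorescence.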

Sequence of canine TRPM8 (Q1A7N1 1-1104): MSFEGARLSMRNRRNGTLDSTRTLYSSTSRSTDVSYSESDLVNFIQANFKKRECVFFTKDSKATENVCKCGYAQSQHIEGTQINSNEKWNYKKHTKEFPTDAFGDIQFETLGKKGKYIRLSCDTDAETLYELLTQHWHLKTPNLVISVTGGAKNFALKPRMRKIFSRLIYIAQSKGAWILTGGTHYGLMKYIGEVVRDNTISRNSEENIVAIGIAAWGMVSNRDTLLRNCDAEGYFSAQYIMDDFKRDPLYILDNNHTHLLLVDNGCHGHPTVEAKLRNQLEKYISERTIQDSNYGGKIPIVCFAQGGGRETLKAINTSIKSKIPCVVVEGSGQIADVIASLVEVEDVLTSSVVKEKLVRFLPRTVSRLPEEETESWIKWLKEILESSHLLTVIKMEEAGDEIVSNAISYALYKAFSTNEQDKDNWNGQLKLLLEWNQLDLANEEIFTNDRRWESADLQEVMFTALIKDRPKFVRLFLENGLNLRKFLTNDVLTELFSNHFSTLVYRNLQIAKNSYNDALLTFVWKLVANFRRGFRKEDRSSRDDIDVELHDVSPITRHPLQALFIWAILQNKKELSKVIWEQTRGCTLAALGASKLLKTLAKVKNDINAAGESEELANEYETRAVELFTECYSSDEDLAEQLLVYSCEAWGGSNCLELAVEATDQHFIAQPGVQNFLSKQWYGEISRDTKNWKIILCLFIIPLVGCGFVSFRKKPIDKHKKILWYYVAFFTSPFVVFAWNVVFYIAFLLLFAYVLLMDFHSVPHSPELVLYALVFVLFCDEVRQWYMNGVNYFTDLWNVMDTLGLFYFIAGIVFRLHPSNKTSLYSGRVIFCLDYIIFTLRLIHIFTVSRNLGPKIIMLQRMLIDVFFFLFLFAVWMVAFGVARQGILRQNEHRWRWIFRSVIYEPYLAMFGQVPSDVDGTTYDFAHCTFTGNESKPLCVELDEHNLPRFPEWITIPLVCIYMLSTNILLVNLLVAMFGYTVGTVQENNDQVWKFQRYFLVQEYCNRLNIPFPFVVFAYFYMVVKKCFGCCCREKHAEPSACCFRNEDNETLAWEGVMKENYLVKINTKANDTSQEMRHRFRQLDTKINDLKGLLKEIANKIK

As to `Cc1c(N(CCC2CC2)S(=O)(=O)c2ccc(N3CCSCC3)cc2)sc2ccccc12` [Compound 740, N-(3-Methyl-benzo[b]thiophen-2-yl)-N-(cyclopropyl-ethyl)-4-thiomorpholin-4-yl-benzenesulfonamide], the inhibition at 0.2 µM came out at 57%.

For the molecule `Cc1c(N(CCC2CC2)S(=O)(=O)c2ccc(N3CCOCC3)cc2)sc2ccccc12` [Compound 741, N-(3-Methyl-benzo[b]thiophen-2-yl)-N-(cyclopropyl-ethyl)-4-morpholino-benzenesulfonamide], the IC50 amounted to 17.3 nM and the inhibition at 0.2 µM was 101%.

`Cc1c(N(CCC2CC2)S(=O)(=O)c2ccc(N3CCNCC3)cc2)sc2ccccc12` [Compound 742, N-(3-Methyl-benzo[b]thiophen-2-yl)-N-(cyclopropyl-ethyl)-4-(piperazin-1-yl)-benzenesulfonamide]: the inhibition at 0.2 µM was found to be 66%.

In the case of `COc1cc(NS(C)(=O)=O)ccc1S(=O)(=O)N(Cc1ccc(F)c(C(F)(F)F)c1)c1cc2ccccc2s1` [Compound 743, N-(Benzo[b]thiophen-2-yl)-N-(4-fluoro-3-trifluoromethyl-benzyl)-4-methanesulfonylamino-2-methoxy-benzenesulfonamide], the inhibition at 0.2 µM was determined as 32%.

As to `COc1cc(NS(C)(=O)=O)ccc1S(=O)(=O)N(Cc1ccc(F)c(C(F)(F)F)c1)c1sc2ccccc2c1Cl` [Compound 744, N-(3-Chloro-benzo[b]thiophen-2-yl)-N-(4-fluoro-3-trifluoromethyl-benzyl)-4-methanesulfonylamino-2-methoxy-benzenesulfonamide], the IC50 came out at 57.3 nM and the inhibition at 0.2 µM was 99%.

For the molecule `Cc1c(N(CCC2CC2)S(=O)(=O)c2nc3ccccc3n2C)sc2ccccc12` [Compound 745, N-(Cyclopropyl-ethyl)-N-(3-methyl-benzo[b]thiophen-2-yl)-1-methyl-1H-benzimidazole-2-sulfonamide], the IC50 came to 84.9 nM and the inhibition at 0.2 µM is 74%.

For `Cc1c(N(Cc2ccc(OC(F)(F)F)cc2)S(=O)(=O)c2nc3ccccc3n2C)sc2ccccc12` [Compound 746, N-(3-Methyl-benzo[b]thiophen-2-yl)-N-(4-trifluoromethoxy-benzyl)-1-methyl-1H-benzimidazole-2-sulfonamide], the inhibition at 0.2 µM was 31%.

Consider `Cc1c(N(Cc2ccc(F)c(C(F)(F)F)c2)S(=O)(=O)c2ccc3c(c2)CC(N)C3)sc2ccccc12` (stereo not drawn) [Compound 747, 2-Amino-indan-N-(3-methyl-benzo[b]thiophen-2-yl)-N-(4-fluoro-3-trifluoromethyl-benzyl)-N-sulfonamide], for which the “% Inh @ 0.2 (μM)” value was 48%.

With `Cc1c(N(CCCCC(F)(F)F)S(=O)(=O)c2ccc(N(C)C)cc2)sc2ccccc12` [Compound 748, N-(3-Methyl-benzo[b]thiophen-2-yl)-N-(5,5,5-trifluoro-pentyl)-4-dimethylamino-benzenesulfonamide], the IC50 amounted to 5.3 nM and the inhibition at 0.2 µM amounted to 101%.

With `Cc1c(N(CCCCC(F)(F)F)S(=O)(=O)c2ccc(N3CCOCC3)cc2)sc2ccccc12` [Compound 750, N-(3-Methyl-benzo[b]thiophen-2-yl)-N-(5,5,5-trifluoro-pentyl)-4-morpholino-benzenesulfonamide], the IC50 came to 9.2 nM and the inhibition at 0.2 µM came to 101%.

Regarding `Cc1c(N(CCC2CC2)S(=O)(=O)c2ccc(N3CCCCC3)cc2)sc2ccccc12` [Compound 751, N-(3-Methyl-benzo[b]thiophen-2-yl)-N-(cyclopropyl-ethyl)-4-piperidin-1-yl-benzenesulfonamide], the inhibition at 0.2 µM was 54%.

With `Cc1c(N(CCCCC(F)(F)F)S(=O)(=O)c2ccc(N3CCCCC3)cc2)sc2ccccc12` [Compound 752, N-(3-Methyl-benzo[b]thiophen-2-yl)-N-(5,5,5-trifluoro-pentyl)-4-piperidine-benzenesulfonamide], the “% Inh @ 0.2 (μM)” value is listed as 65%.

Take `COC(=O)c1ccc(S(=O)(=O)N(Cc2ccc(OC(F)(F)F)cc2)c2sc3ccccc3c2C2CC2)cc1` [Compound 753, N-(3-Cyclopropyl-benzo[b]thiophen-2-yl)-N-(4-trifluoromethoxy-benzyl)-4-carbomethoxy-benzenesulfonamide]: the IC50 turned out to be 27.2 nM and the inhibition at 0.2 µM was determined as 69%.

`COC(=O)c1ccc(S(=O)(=O)N(Cc2ccc(OC(F)(F)F)cc2)c2sc3ccccc3c2C2CCC2)cc1` [Compound 754, N-(3-Cyclobutyl-benzo[b]thiophen-2-yl)-N-(4-trifluoromethoxy-benzyl)-4-carbomethoxy-benzenesulfonamide]: the IC50 was found to be 16.4 nM and the inhibition at 0.2 µM was found to be 82%.

Turning to `O=C(O)c1ccc(S(=O)(=O)N(Cc2ccc(OC(F)(F)F)cc2)c2sc3ccccc3c2C2CC2)cc1` [Compound 755, N-(3-Cyclopropyl-benzo[b]thiophen-2-yl)-N-(4-trifluoromethoxyl-benzyl)-4-carboxy-benzenesulfonamide], the IC50 was found to be 0.9 nM and the inhibition at 0.2 µM is 101%.

In the case of `O=C(O)c1ccc(S(=O)(=O)N(Cc2ccc(OC(F)(F)F)cc2)c2sc3ccccc3c2C2CCC2)cc1` [Compound 756, N-(3-Cyclobutyl-benzo[b]thiophen-2-yl)-N-(4-trifluoromethoxy-benzyl)-4-carboxy-benzenesulfonamide], the IC50 stood at 1.4 nM and the inhibition at 0.2 µM came to 101%.

Turning to `COC(=O)CCCS(=O)(=O)N(Cc1ccc(F)c(C(F)(F)F)c1)c1sc2ccccc2c1C` [Compound 757, N-(4-Fluoro-3-trifluoromethyl-benzyl)-N-(3-methyl-benzo[b]thiophen-2-yl)-3-carbomethoxy-propanesulfonamide], the IC50 came out at 10.8 nM and the inhibition at 0.2 µM was determined as 101%.

Turning to `Cc1c(N(Cc2ccc(F)c(C(F)(F)F)c2)S(=O)(=O)CCCCO)sc2ccccc12` [Compound 758, N-(4-Fluoro-3-trifluoromethyl-benzyl)-N-(3-methyl-benzo[b]thiophen-2-yl)-4-hydroxy-butanesulfonamide], the concentration for half-maximal inhibition (IC50) came out at 5.1 nM and the inhibition at 0.2 µM stood at 101%.

On to `Cc1c(N(Cc2ccc(F)c(C(F)(F)F)c2)S(=O)(=O)CCCC(C)(C)O)sc2ccccc12` [Compound 759, N-(4-Fluoro-3-trifluoromethyl-benzyl)-N-(3-methyl-benzo[b]thiophen-2-yl)-4-hydroxy-4-methyl-pentane-1-sulfonamide], for which the IC50 came to 18.3 nM and the inhibition at 0.2 µM turned out to be 101%.

Take `COC(=O)CCS(=O)(=O)N(Cc1cccc(OC(F)(F)F)c1)c1sc2ccccc2c1C` [Compound 760, N-(3-Methyl-benzo[b]thiophen-2-yl)-N-(3-trifluoromethoxy-benzyl)-2-carbomethoxy-ethanesulfonamide]: the IC50 stood at 45.9 nM and the inhibition at 0.2 µM is 94%.

`COC(=O)CS(=O)(=O)N(Cc1ccc(OC(F)(F)F)cc1)c1sc2ccccc2c1C` [Compound 761, N-(3-Methyl-benzo[b]thiophen-2-yl)-N-(4-trifluoromethoxy-benzyl)-carbomethoxy-methanesulfonamide]: the IC50 amounted to 40 nM and the inhibition at 0.2 µM stood at 79%.

`Cc1c(N(Cc2cccc(OC(F)(F)F)c2)S(=O)(=O)CCC(=O)O)sc2ccccc12` [Compound 762, N-(3-Methyl-benzo[b]thiophen-2-yl)-N-(3-trifluoromethoxy-benzyl)-2-carboxy-ethanesulfonamide]: the IC50 was determined as 25.3 nM and the inhibition at 0.2 µM was determined as 101%.

In the case of `Cc1c(N(Cc2cccc(OC(F)(F)F)c2)S(=O)(=O)CCC(C)(C)O)sc2ccccc12` [Compound 763, N-(3-Methyl-benzo[b]thiophen-2-yl)-N-(3-trifluoromethoxy-benzyl)-3-hydroxy-3-methyl-butane-1-sulfonamide], the IC50 is 27.7 nM and the inhibition at 0.2 µM came to 102%.

With `Cc1c(N(Cc2cccc(OC(F)(F)F)c2)S(=O)(=O)CCCO)sc2ccccc12` [Compound 764, N-(3-Methyl-benzo[b]thiophen-2-yl)-N-(3-trifluoromethoxy-benzyl)-3-hydroxy-propanesulfonamide], the IC50 is 22.1 nM and the inhibition at 0.2 µM was determined as 101%.

In the case of `Cc1c(N(Cc2ccc(F)c(C(F)(F)F)c2)S(=O)(=O)CCCC(=O)O)sc2ccccc12` [Compound 765, N-(4-Fluoro-3-trifluoromethyl-benzyl)-N-(3-methyl-benzo[b]thiophen-2-yl)-3-carboxy-propanesulfonamide], the IC50 was found to be 13.6 nM and the inhibition at 0.2 µM came to 101%.

As for `COc1cc(NS(C)(=O)=O)c(Cl)cc1S(=O)(=O)N(Cc1ccc(F)c(C(F)(F)F)c1)c1sc2ccccc2c1Cl` [Compound 766, 5-Chloro-N-(3-chloro-benzo[b]thiophen-2-yl)-N-(4-fluoro-3-trifluoromethyl-benzyl)-4-methanesulfonylamino-2-methoxy-benzenesulfonamide], the IC50 worked out at 7.8 nM and the inhibition at 0.2 µM came to 101%.

`Cc1c(N(Cc2ccc(F)c(C(F)(F)F)c2)S(=O)(=O)c2ccc3c(c2)CN(C)CC3)sc2ccccc12` [Compound 767, 2-Methyl-N-(4-fluoro-3-trifluoromethyl-benzyl)-N-(3-methyl-benzo[b]thiophen-2-yl)-1,2,3,4-tetrahydroisoquinolin-7-yl-sulfonamide]: the IC50 came to 89.2 nM and the inhibition at 0.2 µM was 77%.

Take `C=C(C)c1c(N(Cc2cc(OC)c(Cl)cc2F)S(=O)(=O)CC)sc2ccccc12` [Compound 768, N-(4-Chloro-2-fluoro-5-methoxy-benzyl)-N-(3-isopropenyl-benzo[b]thiophen-2-yl)-ethanesulfonamide]: the IC50 was 18.8 nM and the inhibition at 0.2 µM worked out at 93%.

For the molecule `Cc1c(N(Cc2cccc(OC(F)(F)F)c2)S(=O)(=O)CCCBr)sc2ccccc12` [Compound 769, N-(3-Methyl-benzo[b]thiophen-2-yl)-N-(3-trifluoromethoxy-benzyl)-3-bromo-propane-1-sulfonamide], the IC50 is 44 nM and the inhibition at 0.2 µM was 85%.
